We go through eight compounds from PubChem BioAssay (NCI).

Experiment in all cases: NCI anticancer screen, dose series, 48 h
In assay [1] the test system is A498 renal.
The test system of assay [2] is MCF7 breast.
Assay [3] relates to NCI-H23 lung.
Assay [4] relates to OVCAR-3 ovarian.
The subject of assay [5] is OVCAR-8 ovarian.
Assay [6] deals with RXF 393 renal.
In assay [7] the test system is SF-539 CNS.
For assay [8], the system named is SK-MEL-2 melanoma.
For assay [9], the system named is SNB-19 CNS.
Assay [10] has as its system SW-620 colon.

Several values for one entry are separate records, joined by “and”; a condition that tells them apart may be missing. Equal values may be shown once.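 Growth conditions: 96-well plates. Treatment: test compound, 48 hours, 5 concentrations. Analysis: linear interpolation between bracketing concentrations; unreached endpoints set to highest concentration. The concentration for 50% growth inhibition is given as GI50. TGI marks complete inhibition of growth.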

`O=C(O)c1ccc(CSc2nc3ccccc3[nH]2)cc1`: the GI50 in assay [1], in assay [2], in assay [3], in [4], in assay [5] and in assay [6] was more than 100 µM in each case. In addition, the GI50 in [7], in assay [8], in [9] and in [10] was more than 100 µM each time. Besides, the TGI in assay [1], in [2], in assay [3], in [4], in assay [5] and in assay [6] was more than 100 µM each time. Also, the TGI in assay [7], in assay [8], in assay [9] and in assay [10] was more than 100 µM throughout.

For the compound `COc1ccc(OC(=O)N2C/C(=C\c3ccccc3)C(=O)/C(=C/c3ccccc3)C2)cc1`, the TGI in [1] came out at 10.6 µM; in [2] it was 4.77 µM; in [3] it was 17.1 µM; in assay [4] it was 13.1 µM; in [5] it was 7.57 µM; in assay [6], 8.71 µM. In addition, the TGI is 22.5 µM in [7], 45.6 µM in assay [8], 16.6 µM in [9] and 2.89 µM in assay [10].

`COc1cc(/C=C2\CCC/C(=C\c3cc(CN4CCCC4)c(O)c(OC)c3)C2=O)cc(CN2CCCC2)c1O`: the GI50 in [1] was 2.94 µM; in assay [2], 4.82 µM; in [3], 4.81 µM; in assay [4], 3.89 µM; in [5], 3.27 µM; in assay [6], 1.72 µM. Further, the GI50 in assay [7] is 1.72 µM; in assay [8] it was 5.09 µM; in assay [9] it was 8.21 µM; in assay [10], 3.62 µM. For the same compound, the TGI in assay [1] was 8.54 µM; in [2], 23.6 µM; in assay [3] it was 19.8 µM; in assay [4] it was 13.8 µM; in [5] it was more than 100 µM; in assay [6], 5.68 µM. Also, the TGI in assay [7] was 3.63 µM; in assay [8], 19.5 µM; in assay [9] it was 20.8 µM; in assay [10], 12.9 µM.

`CC(C)c1cnc(-c2cc(Cl)ccc2F)cc1Nc1ccncc1C(=O)NC(CO)CO`: the GI50 in assay [1] is 2.28 µM; in assay [2], 11.6 µM; in assay [3] it was 13.9 µM; in [4], 14.3 µM; in assay [5] it was 14.6 µM; in assay [6], 10.3 µM. Moreover, the GI50 was 15 µM in assay [7], 18 µM in [8], 15.6 µM in assay [9] and 19.6 µM in [10]. In addition, the TGI in assay [1] came to 19.7 µM; in assay [2] it was 27.3 µM; in assay [3] it was 33.5 µM; in assay [4], 32.8 µM; in assay [5] it was 49.8 µM; in assay [6], 27 µM. The TGI in assay [7] came out at 29.9 µM; in [8], 38.5 µM; in assay [9], 54 µM; in assay [10], 39.5 µM.

With `O=C1CCc2cc(Br)ccc2O1`, the TGI in assay [1] is more than 100 µM; in assay [2], more than 100 µM; in [3], more than 100 µM; in assay [4], more than 100 µM; in assay [5], more than 100 µM; in assay [6], 91.2 µM. In addition, the TGI in assay [7], in [8], in assay [9] and in assay [10] was more than 100 µM in each case.

With `CCCCCCCCCCCCC(O)C1CCC(C(O)CCCCC(O)CCCCCC2CC(CC(C)=O)C(=O)O2)O1` (stereo not given), the GI50 in assay [1] is 5.64 µM; in assay [4], 1.37 µM; in assay [5], 1.38 µM; in assay [6], 5.33 µM; in [7] it was 2.36 µM; in assay [8], 1.36 µM. The GI50 in assay [10] was 3.29 µM. For the same compound, the TGI in assay [1] is 20.6 µM; in [2], 3.82 µM; in assay [3] it was 13.6 µM; in assay [4] it was 2.65 µM and 7.59 µM; in assay [5], 3.48 µM and 20.9 µM; in assay [6], 21.4 µM. Besides, the TGI in [7] was 21.1 µM; in assay [8], 2.88 µM and 15.8 µM; in assay [9] it was 15.3 µM; in [10], 25.4 µM.

With `CC1(C)CC[C@]23CC[C@]4(C)[C@H](CC[C@@H]5[C@@]6(C)CCCNC(C)(C)[C@@H]6CC[C@]54C)[C@H]2[C@H]1OC3`, the GI50 in assay [1] was 1.68 µM; in assay [2], 1.44 µM; in assay [3] it was 1.76 µM; in [4], 1.62 µM; in assay [6], 1.56 µM; in assay [7] it was 1.64 µM. Besides, the GI50 in assay [8] was 1.95 µM; in assay [9], 1.85 µM; in [10], 1.75 µM. Further, the TGI in assay [1] came to 3.67 µM; in assay [2], 3.01 µM; in assay [3] it was 3.5 µM; in [4] it was 3.1 µM; in assay [6], 2.98 µM; in [7], 3.07 µM. Besides, the TGI in [8] was determined as 4.09 µM; in assay [9], 3.35 µM; in [10] it was 3.49 µM.

Turning to `Cc1c(O)cccc1C(=O)N[C@@H](CSc1ccccc1)[C@H](O)CN1C[C@H]2CCCC[C@H]2C[C@H]1C(=O)NC(C)(C)C`, the GI50 in assay [1] was 10.5 µM and 4.26 µM; in assay [2] it was 6.22 µM and 3.9 µM; in [3], 6.68 µM and 7 µM; in [4] it was 2.62 µM and 5.24 µM; in assay [5], 6.56 µM and 7.87 µM; in [6] it was 1.96 µM and 2.91 µM. The GI50 in [7] was 6.35 µM and 5.55 µM; in [8], 5.63 µM and 5.26 µM; in assay [9], 3.17 µM and 6.96 µM; in assay [10], 5.66 µM and 8.79 µM. Besides, the TGI in assay [1] was 24.9 µM and 15.3 µM; in assay [2], 24.4 µM and 15.7 µM; in [3], 30.6 µM and 26.3 µM; in assay [4], 9.46 µM and 16.2 µM; in assay [5], 35.2 µM and 39.6 µM; in [6], 4.26 µM and 6.37 µM. Also, the TGI in assay [7] was 22.2 µM and 16.2 µM; in assay [8] it was > 100 µM and 25.4 µM; in assay [9], 16.1 µM and > 43.8 µM; in assay [10], 27 µM and 29.9 µM.
